molecular target: T1, p53 Y220C (Homo sapiens, UniProt P04637, Y220C); assay: In vitro DNA binding activity assay (HTRF / TR-FRET): stabilization of p53 Y220C and increase of its DNA binding activity; format: biochemical; conditions: recombinant His-tagged p53 Y220C DNA binding domain (aa 94-312), biotin-labeled consensus DNA, incubated at 27° C. or 29° C. for 60 min
T1 construct: The recombinant protein was a truncation mutant containing only amino acids 94-312 of p53; made in house; host or cells: E. coli
T1 sequence (P04637 94-312, change not shown): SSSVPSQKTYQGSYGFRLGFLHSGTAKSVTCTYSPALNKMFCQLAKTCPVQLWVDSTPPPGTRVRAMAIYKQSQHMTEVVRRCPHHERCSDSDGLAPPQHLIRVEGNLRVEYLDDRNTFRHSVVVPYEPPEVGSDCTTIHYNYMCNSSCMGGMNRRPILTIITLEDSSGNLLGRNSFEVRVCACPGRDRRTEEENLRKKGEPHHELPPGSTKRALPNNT
How it was run: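 Homogeneous time-resolved fluorescence with E. coli-derived p53 Y220C and biotinylated consensus DNA. Room-temperature incubations of 15 and 20 min precede reading. SC150 denotes the compound concentration required for 50% increased DNA binding.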

Row | SMILES | SC150 (concentration of the compound required to increase the DNA binding activity by 50%)
1 | COC(=O)c1ccc(NCC#Cc2cc3c(N[C@H]4CCN(C)C[C@H]4F)cccc3n2CC(F)(F)F)c(OC)c1 (racemic) [Compound 778A, rac-methyl 4-{[3-(4-{[(3R,4S)-3-fluoro-1-methylpiperidin-4-yl]amino}-1-(2,2,2-trifluoroethyl)-1H-indol-2-yl)prop-2-yn-1-yl]amino}-3-methoxybenzoate] | + (+ = 0 μM ≤ SC150 < 0.05 μM)
2 | COCCN1CC[C@@H](Nc2cccc3c2cc(C#CCNc2ccc(C(=O)OC)cc2OC)n3CC(F)(F)F)[C@@H](F)C1 [Compound 897A] | + (+ = 0 μM ≤ SC150 < 0.05 μM)
3 | CNC(=O)c1ccc(NCC#Cc2cc3c(N[C@H]4CC[C@H](N5CCCC(OC)C5)CC4)cccc3n2CC(F)(F)F)c(OC)c1 (stereo partly drawn) [Compound 356A, 3-methoxy-N-methyl-4-{[3-(4-{[(1R,4R)-4-(3-methoxypiperidin-1-yl)cyclohexyl]amino}-1-(2,2,2-trifluoroethyl)-1H-indol-2-yl)prop-2-yn-1-yl]amino} benzamide] | + (+ = 0 μM ≤ SC150 < 0.05 μM)
4 | COCC(O)CN1CCC(Nc2cccc3c2cc(C#CCNc2ccc(S(C)(=O)=O)cc2OC)n3CC(F)(F)F)C1 (stereo not shown) [Compound 455A, 1-{3-[(2-{3-{(4-methanesulfonyl-2-methoxyphenyl)amino]prop-1-yn-1-yl}-1-(2,2,2-trifluoroethyl)-1H-indol-4-yl)amino]pyrrolidin-1-yl}-3-methoxypropan-2-ol] | + (+ = 0 μM ≤ SC150 < 0.05 μM)
5 | CNC(=O)c1ccc(NCC#Cc2cc3c(N[C@H]4CC[C@H](N(C)C)CC4)cccc3n2CC(F)(F)F)c(OCCC#N)c1 [Compound 114A, 3-(2-cyanoethoxy)-N-methyl-4-{[3-(4-{[(1R,4R)-4-(dimethyl-amino)cyclohexyl]amino}-1-(2,2,2-trifluoro-ethyl)-1H-indol-2-yl)prop-2-yn-1-yl]amino}benzamide] | + (+ = 0 μM ≤ SC150 < 0.05 μM)
6 | COc1cc(C(=O)N2CCOCC2)ccc1NCC#Cc1cc2c(N[C@@H]3CCN(C)C[C@@H]3F)cccc2n1CC(F)(F)F [Compound 909A] | + (+ = 0 μM ≤ SC150 < 0.05 μM)
7 | COCC(O)CN1CCC(Nc2cccc3c2cc(C#CCNc2ccc(S(C)(=O)=O)cc2OCC#N)n3CC(F)(F)F)CC1 (stereo not shown) [Compound 642A, 2-(2-{[3-(4-{[1-(2-hydroxy-3-methoxypropyl)piperidin-4-yl]amino}-1-(2,2,2-trifluoroethyl)-1H-indol-2-yl)prop-2-yn-1-yl]amino}-5-methanesulfonylphenoxy) acetonitrile] | + (+ = 0 μM ≤ SC150 < 0.05 μM)
8 | CCNC(=O)c1ccc(NCC#Cc2cc3c(N[C@@H]4CCN(C)C[C@@H]4F)cccc3n2CC(F)(F)F)c(O)c1 [Compound 1060A, N-ethyl-4-{[3-(4-{[(3S,4R)-3-fluoro-1-methylpiperidin-4-yl]amino}-1-(2,2,2-trifluoroethyl)-1H-indol-2-yl)prop-2-yn-1-yl]amino}-3-hydroxybenzamide] | + (+ = 0 μM ≤ SC150 < 0.05 μM)
9 | CN1CC[C@@H](Nc2cccc3c2cc(C#CCNC(=O)[C@@H]2C[C@H]2c2ccccc2)n3CC(F)(F)F)[C@@H](F)C1 [Compound 952A, (1R,2R)—N-[3-(4-{[(3S,4R)-3-fluoro-1-methylpiperidin-4-yl]amino}-1-(2,2,2-trifluoroethyl)-1H-indol-2-yl)prop-2-yn-1-yl]-2-phenylcyclopropane-1-carboxamide] | + (+ = 0 μM ≤ SC150 < 0.05 μM)
10 | CS(=O)(=O)c1ccc(NCC#Cc2cc3c(NC4CCN(C(=O)CO)CC4)cccc3n2CC(F)(F)F)c(O)c1 [Compound 731A, 2-hydroxy-1-{4-[(2-{3-[(2-hydroxy-4-methanesulfonylphenyl)amino]prop-1-yn-1-yl}-1-(2,2,2-trifluoroethyl)-1H-indol-4-yl)amino]piperidin-1-yl}ethan-1-one] | + (+ = 0 μM ≤ SC150 < 0.05 μM)
11 | COCC(CN1CCC(Nc2cccc3c2cc(C#CCNc2ccc(S(N)(=O)=O)cc2OC)n3CC(F)(F)F)CC1)OC(C)=O (stereo not shown) [Compound 619A, 1-methoxy-3-{4-[(2-{3-[(2-methoxy-4-sulfamoylphenyl)amino]prop-1-yn-1-yl}-1-(2,2,2-trifluoroethyl)-1H-indol-4-yl)amino]piperidin-1-yl}propan-2-yl acetate] | + (+ = 0 μM ≤ SC150 < 0.05 μM)
12 | CNC(=O)c1ccc(NCC#Cc2cc3c(N[C@H]4CC[C@@H](N5CC6CC(C5)O6)CC4)cccc3n2CC(F)(F)F)c(OC)c1 [Compound 403A, 3-methoxy-N-methyl-4-{[3-(4-{[(1S,4S)-4-{6-oxa-3-azabicyclo[3.1.1]heptan-3-yl}cyclohexyl]amino}-1-(2,2,2-trifluoroethyl)-1H-indol-2-yl)prop-2-yn-1-yl]amino}benzamide] | ++ (++ = 0.05 μM ≤ SC150 < 0.1 μM)
13 | CCOc1cc(S(C)(=O)=O)ccc1NCC#Cc1cc2c(N[C@H]3CC[C@H](N4CCC5(CC4)COC5)CC3)cccc2n1CC(F)(F)F [Compound 393A, N-((1R,4R)-4-(2-oxa-7-azaspiro[3.5]nonan-7-yl)cyclohexyl)-2-(3-((2-ethoxy-4-(methylsulfonyl)phenyl)amino)prop-1-yn-1-yl)-1-(2,2,2-trifluoroethyl)-1H-indol-4-amine] | + (+ = 0 μM ≤ SC150 < 0.05 μM)
14 | COc1cc(S(=O)(=O)NC2CCOCC2)ccc1NCC#Cc1cc2c(NC3CCS(=O)(=O)CC3)cccc2n1CC(F)(F)F [Compound 1041A, 4-[(3-{4-[(1,1-dioxo-1λ^6-thian-4-yl)amino]-1-(2,2,2-trifluoroethyl)-1H-indol-2-yl}prop-2-yn-1-yl)amino]-3-methoxy-N-(oxan-4-yl)benzene-1-sulfonamide] | + (+ = 0 μM ≤ SC150 < 0.05 μM)
15 | COc1cc(C(=O)O)ccc1NCC#Cc1cc2c(NC3CCN(C[C@@H](C)O)CC3F)cccc2n1CC(F)(F)F (mixture of isomers) [Compound 911A, 4-{[3-(4-{[(3S,4R)-3-fluoro-1-(2-hydroxypropyl)piperidin-4-yl]amino}-1-(2,2,2-trifluoroethyl)-1H-indol-2-yl)prop-2-yn-1-yl]amino}-3-methoxybenzoic acid] | + (+ = 0 μM ≤ SC150 < 0.05 μM)
16 | CNC(=O)c1ccc(NCC#Cc2cc3c(N[C@H]4CC[C@@H](N5CC6(COC6)C5)CC4)cccc3n2CC(F)(F)F)c(OC)c1 [Compound 230A, 3-methoxy-N-methyl-4-{[3-(4-{[(1S,4S)-4-{2-oxa-6-azaspiro[3.3]heptan-6-yl}cyclo-hexyl]amino}-1-(2,2,2-trifluoroethyl)-1H-indol-2-yl)prop-2-yn-1-yl]amino}benzamide] | + (+ = 0 μM ≤ SC150 < 0.05 μM)
17 | COc1cc(C(C)(C)C#N)ncc1NCC#Cc1cc2c(NC3CCS(=O)(=O)CC3)cccc2n1CC(F)(F)F [Compound 1034A, 2-{5-[(3-{4-[(1,1-dioxo-1λ^6-thian-4-yl)amino]-1-(2,2,2-trifluoroethyl)-1H-indol-2-yl}prop-2-yn-1-yl)amino]-4-methoxypyridin-2-yl}-2-methylpropanenitrile] | + (+ = 0 μM ≤ SC150 < 0.05 μM)
18 | COc1cc(C(=O)NCC2COC(=O)O2)ccc1NCC#Cc1cc2c(N[C@@H]3CCN(C)C[C@@H]3F)cccc2n1CC(F)(F)F (stereo partly drawn) [Compound 968A, 4-{1[3-(4-{1[(3S,4R)-3-fluoro-1-methylpiperidin-4-yl]amino}-1-(2,2,2-trifluoroethyl)-1H-indol-2-yl)prop-2-yn-1-yl]amino}-3-methoxy-N-[(2-oxo-1,3-dioxolan-4-yl)methyl]benzamide] | + (+ = 0 μM ≤ SC150 < 0.05 μM)
19 | CCN1CCC(Nc2cccc3c2cc(C#CCNc2ccc(S(C)(=O)=O)cc2OCC#N)n3CC(F)(F)F)CC1 [Compound 536A] | + (+ = 0 μM ≤ SC150 < 0.05 μM)
20 | COc1cc(S(C)(=O)=O)ccc1NCC#Cc1cc2c(NC3CCN(C4COC4)CC3)cccc2n1CC(F)(F)F [Compound 678A, 2-{3-[(4-methanesulfonyl-2-methoxyphenyl)amino]prop-1-yn-1-yl}-N-[1-(oxetan-3-yl)piperidin-4-yl]-1-(2,2,2-trifluoroethyl)-1H-indol-4-amine] | + (+ = 0 μM ≤ SC150 < 0.05 μM)
21 | CNC(=O)c1ccc(NCC#Cc2cc3c(N[C@H]4CC[C@H](N(C)C)CC4)cccc3n2CC(F)(F)F)c(O)c1 [Compound 98A, 3-hydroxy-N-methyl-4-{[3-(4-{[(1R,4R)-4-(dimethylamino)cyclo-hexyl]amino}-1-(2,2,2-trifluoroethyl)-1H-indol-2-yl)prop-2-yn-1-yl]amino}benzamide] | + (+ = 0 μM ≤ SC150 < 0.05 μM)
22 | COc1cc(S(C)(=O)=O)ccc1NCC#Cc1cc2c(NC3CCN(C[C@@H]4COC(C)(C)O4)CC3)cccc2n1CC(F)(F)F [Compound 566A, N-(1-{[(4R)-2,2-dimethyl-1,3-dioxolan-4-yl]methyl}piperidin-4-yl)-2-{3-[(4-methanesulfonyl-2-methoxyphenyl)amino]prop-1-yn-1-yl}-1-(2,2,2-trifluoroethyl)-1H-indol-4-amine] | + (+ = 0 μM ≤ SC150 < 0.05 μM)

Reference: US12428406B2 (PMV Pharmaceuticals, Inc., priority 2019, dated 2025)
